The values that follow are results of earlier work, collected in patent US5525603A, “Compositions, methods and kits for potentiating antitumor effect and for treating tumor” (priority 1991, dated 1996).

Data set [1] has as its system oral cavity, gastrointestinal tissue. Conditions: prolonged presence in the living body, continuous intravenous infusion of 5-FU alone.
For data set [2] the following is noted: in combination with 5-FU or 5-FU derivative.

On to `O=c1[nH]cc(F)c(=O)[nH]1` [5-FU, 5-fluorouracil], for which the “disorder (inflammation) in the oral cavity, gastrointestinal tissue and the like” value in data set [1] was “likely to cause a disorder (inflammation) in the oral cavity, gastrointestinal tissue and the like”. As to `O=C(O)c1nc(=O)[nH]c(=O)[nH]1` [oxonic acid], in data set [2], the “effect on antitumor effect of 5-FU or 5-FU derivative” value is “reduces the antitumor effect of 5-FU or 5-FU derivative” and the “inhibition of inflammation caused by 5-FU or 5-FU derivative” value is “can inhibit the occurrence of inflammation caused by 5-FU or 5-FU derivative”.
